Values of other authors, collected in US7485658B2, “N-substituted pyrazolyl-amidyl-benzimidazolyl c-Kit inhibitors” (OSI Pharmaceuticals, Inc., priority 2003, dated 2009).
Where a name gives a salt, the structure may show the parent alone.

Key:
[1] = test system: MO7e human leukemia cells
[2] = test system: MO7e human leukemia cells; remark: listed apart in the source

## Cc1ccc(NC(=O)c2ccc(CN3CCN(C)CC3)cc2)cc1Nc1nccc(-c2cccnc2)n1 [Gleevec, imatinib mesylate]
[1]; Kit ligand stimulated
  Kit ligand-stimulated growth of MO7e cells: inhibited
[1]; Kit ligand stimulated conditions
  apoptosis in MO7e cells: induces apoptosis
[2]
  GM-CSF stimulated growth of MO7e cells: not affected
